{"source": "patent US20110281802A1", "about": "“COMPOSITION FOR TREATMENT AND PREVENTION OF HAIR LOSS AND PREMATURE GRAYING OF HAIR” (Immudiagnostik AG, priority 2007, published 2011)", "key": {"[1]": {"system": "human anagen VI hair follicles", "assay": "Hair shaft elongation of organ-cultured hair follicles, assay #1 (culture HF 429)", "format": "cell-based", "details": "for Hair growth compared with control (in words): p<0.05", "protocol": "(§1) Human anagen VI hair follicles were isolated from scalp skin obtained from three different individuals undergoing routine face-lift surgery. All experiments were performed according to Helsinki guidelines.\n(§2) Hair follicles were isolated as described (Philpott MP et al, Human hair growth in vitro; J Cell Science 1990, 97(Pt 3):463-71). Isolated HFs were maintained in supplemented, serum-free Williams E medium (Biochrom, Cambridge, UK) supplemented with 2 mMol/L L-glutamine (Invitrogen, Paisley, UK), 10 ng/mL hydrocortisone (Sigma-Aldrich, Taufkirchen, Germany), 10 μg/mL insulin (Sigma-Aldrich), and 1% antibiotic/antimycotic mixture (Gibco, Karlsruhe, Germany). Hair follicles were placed in a 24-well plate with 500 μL medium (day 0) and incubated in a CO2-incubator (5% CO2, 37° C.) over night without any treatment. The next day (day 1) medium was exchanged and test substance was added to each well (5 μL of stock solution was added to 495 μL culture medium). The medium or medium with test substance was changed every 48 hours.\nAssay #1 Culture HF429: Hair follicles were grown in the wells of a microtiter plate (3 follicles per well) and treated for 9 days with culture medium and test substance as indicated in FIG. 1. Thereafter, elongation, melanogenesis and hair cycle stage were determined.\n(§3) Hair shaft length measurements were performed every second day on individual hair follicles using a binocular microscope with an eyepiece measuring reticule. The length of the follicle was defined as the distance between the base of the bulb and the cut end of the hair fibre (Philpott MP et al, Human hair growth in vitro; J Cell Science 1990, 97(Pt 3):463-71).\n(§4) All data were analysed by two-tailed unpaired t-test (SPSS analysis software SPSS Inc., Chicago, USA). For determination of elongation, two outliers at top and bottom end of value range were eliminated; with the measurement of melanogenesis one outlier at both, top and bottom range, was eliminated. Results are given as mean value and standard error of measurement (SEM)."}, "[2]": {"system": "human anagen VI hair follicles", "assay": "Hair shaft elongation of organ-cultured hair follicles, assay #3 (culture HF 446)", "format": "cell-based", "protocol": "as §1, §2\nAssay #3 Culture HF 446: Eight hair follicle cultures (3 follicles/well) were treated with various concentration of test substance as described for 2 days, followed by snap freezing and sectioning of two wells. Six wells were treated up to 9 days, then snap frozen and sectioned. The distribution of test substances and concentrations were as indicted in FIG. 3. The parameter measured after two days was proliferation/apoptosis, and the parameters measured after 9 days were elongation, proportion of cells in proliferation/apoptosis, and hair cycle stage\nas §3, §4"}, "[3]": {"system": "TSH", "assay": "Immunohistochemical staining of treated hair follicles for TSH (assay #6)", "format": "cell-based, human", "details": "few slides only", "protocol": "Assay #6—Stimulation of expression of pituitary hormones by Thymulin (PRL+TSH): Hair follicles from the occipital area of a person were cultured for 9 days and treated with culture medium and thymulin 10 pg/mL (human thymulin, No A9530AG.1; Immundiagnostik AG, Bensheim, Germany) as described above, then snap frozen and sectioned. The staining was performed according to the following protocol:\nB. TSH: Pre-incubation with 10% goat serum (Dako Cytomation, CatNo 50114121) in TBS for 20 minutes, then incubation with primary antibody (mouse anti-human TSH, Dianova, Hamburg, Germany, CatNo DLN 07830), dilution 1:20 in TBS+2% goat serum (Dako Cytomation, CatNo 50114121) overnight at 4° C. Thereafter washing in TBS. Incubation with secondary antibody (goat anti-mouse-biotinylated, Beckman Coulter, Inc. Fullerton, Calif., USA, CatNo IM0816) diluted to 1:200 with 2% goat serum in TBS for 45 minutes at room temperature. Treatment with avidin/biotin-complex coupled with alkaline phosphatase (Vector Laboratories, Burlingame, Calif., USA; CatNo AK-5000) for 30 minutes, then washes in TBS. Thereafter treatment with Fast Red Tablets (Sigma-Aldrich, CatNo F4648-50SET) for 6 minutes. Counterstaining with Mayer's Haemalaun (Chroma Muenster, CatNo 2E038) and mounting with Aquamount (DAKO Cytomation, CatNo S3025). […]"}, "[4]": {"system": "Prolactin", "assay": "Immunohistochemical staining of treated hair follicles for prolactin (assay #6)", "format": "cell-based, human", "details": "10 pg/mL and 100 pg/mL, few hair follicles, very preliminary", "protocol": "The staining was performed according to the following protocol:\nA. Prolactin: Pre-treatment with 0.5% Triton X (Fluka, Sigma Aldrich, Taufkirchen, Germany; CatNo 93420) in TBS for 10 minutes at room temperature, three washings in TBS for five minutes each, treatment with 0.6% H2O2 in methanol three times for 15 minutes, washes in TBS. Pre-incubation with 10% rabbit serum (Dako Cytomation, CatNo X0902) in TBS with 3% BSA for 20 minutes, incubation with primary antibody (goat anti-human prolactin, Santa Cruz Biotechnology, Inc., Santa Cruz, Calif., USA; CatNo SC-7805), dilution 1:100 in TBS+2% rabbit serum (Dako Cytomation, CatNo X0902) overnight at 4° C. Thereafter washes in TBS. Incubation with secondary antibody (rabbit anti-goat-biotinylated, DAKO Cytomation, CatNo E0466) diluted to 1:200 with 2% rabbit serum in TBS for 45 minutes at room temperature. Treatment with Avidin Biotin Complex-alkaline phosphatase (Vector Laboratories, Burlingame, Calif., USA; CatNo AK-5000) for 30 minutes, then washing in TBS. Thereafter treatment with Fast Red Tablets (Sigma-Aldrich, CatNo F4648-50SET) for 6 minutes. Counterstaining with Mayer's Haemalaun (Chroma Muenster, CatNo 2E038) and mounting with Aquamount (DAKO Cytomation, CatNo S3025).\nIn both assays human pituitary gland was set as positive control and negative control were hair follicles treated without the primary antibody."}}}
{"substance": "Thymosin beta-4 [TB4]", "values": [{"measurement": "Mean elongation in % compared to day 1", "setting": "[1]; 100 ng/mL, Day 0", "result": 0.00, "unit": "%"}, {"measurement": "Mean elongation in % compared to day 1", "setting": "[1]; 100 ng/mL, Day 1", "result": 12.26, "unit": "%"}, {"measurement": "Mean elongation in % compared to day 1", "setting": "[1]; 100 ng/mL, Day 3", "result": 35.49, "unit": "%"}, {"measurement": "Mean elongation in % compared to day 1", "setting": "[1]; 100 ng/mL, Day 5", "result": 49.79, "unit": "%"}, {"measurement": "Mean elongation in % compared to day 1", "setting": "[1]; 100 ng/mL, Day 7", "result": 61.36, "unit": "%"}, {"measurement": "Mean elongation in % compared to day 1", "setting": "[1]; 100 ng/mL, Day 9", "result": 74.11, "unit": "%"}, {"measurement": "Hair growth compared with control (in words)", "setting": "[1]; 100 ng/mL", "result": "significant lack of hair growth"}, {"measurement": "Mean elongation in % compared to day 1", "setting": "[1]; 1000 ng/mL, Day 0", "result": 0.00, "unit": "%"}, {"measurement": "Mean elongation in % compared to day 1", "setting": "[1]; 1000 ng/mL, Day 1", "result": 14.20, "unit": "%"}, {"measurement": "Mean elongation in % compared to day 1", "setting": "[1]; 1000 ng/mL, Day 3", "result": 39.31, "unit": "%"}, {"measurement": "Mean elongation in % compared to day 1", "setting": "[1]; 1000 ng/mL, Day 5", "result": 66.20, "unit": "%"}, {"measurement": "Mean elongation in % compared to day 1", "setting": "[1]; 1000 ng/mL, Day 7", "result": 90.23, "unit": "%"}, {"measurement": "Mean elongation in % compared to day 1", "setting": "[1]; 1000 ng/mL, Day 9", "result": 103.17, "unit": "%"}, {"measurement": "Mean elongation in % compared to day 0", "setting": "[2]; 100 ng/mL, Day 0", "result": 0, "unit": "%"}, {"measurement": "Mean elongation in % compared to day 0", "setting": "[2]; 100 ng/mL, Day 1", "result": 5.91, "unit": "%"}, {"measurement": "Mean elongation in % compared to day 0", "setting": "[2]; 100 ng/mL, Day 3", "result": 42.55, "unit": "%"}, {"measurement": "Mean elongation in % compared to day 0", "setting": "[2]; 100 ng/mL, Day 5", "result": 59.58, "unit": "%"}, {"measurement": "Mean elongation in % compared to day 0", "setting": "[2]; 100 ng/mL, Day 7", "result": 73.62, "unit": "%"}, {"measurement": "Mean elongation in % compared to day 0", "setting": "[2]; 100 ng/mL, Day 9", "result": 83.13, "unit": "%"}, {"measurement": "Mean elongation in % compared to day 0", "setting": "[2]; 1000 ng/mL, Day 0", "result": 0, "unit": "%"}, {"measurement": "Mean elongation in % compared to day 0", "setting": "[2]; 1000 ng/mL, Day 1", "result": 8.28, "unit": "%"}, {"measurement": "Mean elongation in % compared to day 0", "setting": "[2]; 1000 ng/mL, Day 3", "result": 39.17, "unit": "%"}, {"measurement": "Mean elongation in % compared to day 0", "setting": "[2]; 1000 ng/mL, Day 5", "result": 53.52, "unit": "%"}, {"measurement": "Mean elongation in % compared to day 0", "setting": "[2]; 1000 ng/mL, Day 7", "result": 65.51, "unit": "%"}, {"measurement": "Mean elongation in % compared to day 0", "setting": "[2]; 1000 ng/mL, Day 9", "result": 70.08, "unit": "%"}, {"measurement": "Rate of hair growth compared with control (in words)", "setting": "[2]; 1000 ng/mL, p<0.05", "result": "significantly lowered rate of hair growth"}]}
{"substance": "thymulin", "values": [{"measurement": "Mean elongation with thymulin in percent compared to day 0", "setting": "[1]; 10 pg/mL, Day 0", "result": 0, "unit": "%"}, {"measurement": "Mean elongation with thymulin in percent compared to day 0", "setting": "[1]; 10 pg/mL, Day 1", "result": 13.19, "unit": "%"}, {"measurement": "Mean elongation with thymulin in percent compared to day 0", "setting": "[1]; 10 pg/mL, Day 3", "result": 37.58, "unit": "%"}, {"measurement": "Mean elongation with thymulin in percent compared to day 0", "setting": "[1]; 10 pg/mL, Day 5", "result": 64.05, "unit": "%"}, {"measurement": "Mean elongation with thymulin in percent compared to day 0", "setting": "[1]; 10 pg/mL, Day 7", "result": 75.10, "unit": "%"}, {"measurement": "Mean elongation with thymulin in percent compared to day 0", "setting": "[1]; 10 pg/mL, Day 9", "result": 90.98, "unit": "%"}, {"measurement": "Mean elongation with thymulin in percent compared to day 0", "setting": "[1]; 100 pg/mL, Day 0", "result": 0, "unit": "%"}, {"measurement": "Mean elongation with thymulin in percent compared to day 0", "setting": "[1]; 100 pg/mL, Day 1", "result": 11.33, "unit": "%"}, {"measurement": "Mean elongation with thymulin in percent compared to day 0", "setting": "[1]; 100 pg/mL, Day 3", "result": 31.50, "unit": "%"}, {"measurement": "Mean elongation with thymulin in percent compared to day 0", "setting": "[1]; 100 pg/mL, Day 5", "result": 53.75, "unit": "%"}, {"measurement": "Mean elongation with thymulin in percent compared to day 0", "setting": "[1]; 100 pg/mL, Day 7", "result": 68.76, "unit": "%"}, {"measurement": "Mean elongation with thymulin in percent compared to day 0", "setting": "[1]; 100 pg/mL, Day 9", "result": 83.13, "unit": "%"}, {"measurement": "Hair growth compared with control (in words)", "setting": "[1]; 100 pg/mL", "result": "significant lack of hair growth"}, {"measurement": "Immunoreactivity for TSH, treated versus control hair follicles (in words)", "setting": "[3]", "result": "Did not Show any Differences"}, {"measurement": "Immunoreactivity for Prolactin in treated hair follicles (in words)", "setting": "[4]", "result": "some additional staining in the IRS"}, {"measurement": "Mean elongation in % compared to day 0", "setting": "[2]; 10 pg/mL, Day 0", "result": 0, "unit": "%"}, {"measurement": "Mean elongation in % compared to day 0", "setting": "[2]; 10 pg/mL, Day 1", "result": 7.30, "unit": "%"}, {"measurement": "Mean elongation in % compared to day 0", "setting": "[2]; 10 pg/mL, Day 3", "result": 45.35, "unit": "%"}, {"measurement": "Mean elongation in % compared to day 0", "setting": "[2]; 10 pg/mL, Day 5", "result": 58.41, "unit": "%"}, {"measurement": "Mean elongation in % compared to day 0", "setting": "[2]; 10 pg/mL, Day 7", "result": 67.70, "unit": "%"}, {"measurement": "Mean elongation in % compared to day 0", "setting": "[2]; 10 pg/mL, Day 9", "result": 78.70, "unit": "%"}, {"measurement": "Mean elongation in % compared to day 0", "setting": "[2]; 100 pg/mL, Day 0", "result": 0, "unit": "%"}, {"measurement": "Mean elongation in % compared to day 0", "setting": "[2]; 100 pg/mL, Day 1", "result": 5.86, "unit": "%"}, {"measurement": "Mean elongation in % compared to day 0", "setting": "[2]; 100 pg/mL, Day 3", "result": 40.11, "unit": "%"}, {"measurement": "Mean elongation in % compared to day 0", "setting": "[2]; 100 pg/mL, Day 5", "result": 62.88, "unit": "%"}, {"measurement": "Mean elongation in % compared to day 0", "setting": "[2]; 100 pg/mL, Day 7", "result": 80.67, "unit": "%"}, {"measurement": "Mean elongation in % compared to day 0", "setting": "[2]; 100 pg/mL, Day 9", "result": 94.36, "unit": "%"}]}
